Test results reported in US20060228313A1, “Method of cosmetic depigmentation care by applying at least one aurone” (Coletica, priority 2005, published 2006).

Target: T1, Human tyrosinase (Homo sapiens, UniProt P14679)
T1 construct: Normal human melanocytes (originating from abdominal plasty) are sown in a 24-well plate; endogenous in cells; host or cells: normal human melanocytes (abdominal plasty; donors of light, brown and black phototype)
T1 sequence (P14679 19-529): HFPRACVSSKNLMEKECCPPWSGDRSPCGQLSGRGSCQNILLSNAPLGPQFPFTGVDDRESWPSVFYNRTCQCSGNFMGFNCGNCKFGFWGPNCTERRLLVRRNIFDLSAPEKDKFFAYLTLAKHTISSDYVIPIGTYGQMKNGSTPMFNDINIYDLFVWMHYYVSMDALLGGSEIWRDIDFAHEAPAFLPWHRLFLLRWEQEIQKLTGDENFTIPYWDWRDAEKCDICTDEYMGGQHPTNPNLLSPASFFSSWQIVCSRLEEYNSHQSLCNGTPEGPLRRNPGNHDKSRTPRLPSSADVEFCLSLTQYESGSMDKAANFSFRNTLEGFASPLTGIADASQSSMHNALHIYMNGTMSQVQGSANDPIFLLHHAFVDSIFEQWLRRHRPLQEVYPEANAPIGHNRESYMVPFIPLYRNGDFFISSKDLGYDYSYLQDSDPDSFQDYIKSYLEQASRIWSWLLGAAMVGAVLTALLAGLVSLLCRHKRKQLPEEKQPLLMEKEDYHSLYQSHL
Assay: Inhibition of human tyrosinase in a monolayer after application of the actives on normal human melanocytes
Assay type: cell-based
Conditions: for Inhibition of human tyrosinase after application on normal human melanocytes, percentage inhibition: 24 hours
Description: Normal human melanocytes (originating from abdominal plasty) are sown in a 24-well plate at the rate of 80,000 cells per well. They are cultivated up to confluence and the actives are applied for 24 hours in the culture media. After 24 hours, the media are removed and the melanocytes are picked up by mechanical action. An extraction is made by heat shock and the supernatants are then recovered and then incubated with MBTH (Sigma) and L-Dopa (Sigma). The OD at 490 nm is measured after 30 minutes, and the inhibition is of the tyrosinase is calculated by comparing the OD at 490 nm to the protein level (measured in each culture well) of the test with respect to the ratio: OD 490 nm/concentration of protein of the negative control (non-treated control). […]

O=C1/C(=C/c2ccco2)Oc2cc(O)cc(O)c21 [Example 7m, (Z)-4,6-Dihydroxy-2-[(furan)methylene]benzofuran-3(2H)-one]
Inhibition of human tyrosinase after application on normal human melanocytes, percentage inhibition (10^−4M): 23.6% | Inhibition of human tyrosinase after application on normal human melanocytes, percentage inhibition (10^−5M): 6.4%

CCc1ccccc1/C=C1\Oc2cc(O)cc(O)c2C1=O [Example 7l]
Inhibition of human tyrosinase after application on normal human melanocytes, percentage inhibition (10^−4M): 0% | Inhibition of human tyrosinase after application on normal human melanocytes, percentage inhibition (10^−5M): 6.1%

O=C1/C(=C/c2ccccc2O)Oc2cc(O)cc(O)c21 [Example 9c]
Inhibition of human tyrosinase after application on normal human melanocytes, percentage inhibition (10^−4M): 12.85% | Inhibition of human tyrosinase after application on normal human melanocytes, percentage inhibition (10^−5M): 4.32%

CCCc1ccc(/C=C2\Oc3cc(O)cc(O)c3C2=O)cc1 [Example 7h]
Inhibition of human tyrosinase after application on normal human melanocytes, percentage inhibition (10^−4M): 5.43% | Inhibition of human tyrosinase after application on normal human melanocytes, percentage inhibition (10^−5M): 26.88%

COc1cc(OC)c2c(c1)O/C(=C\c1cc(C)c(C)o1)C2=O [Example 5o, (Z)-4,6-Dimethoxy-2-[(4,5-dimethylfuran)methylene]benzofuran-3(2H)-one]
Inhibition of human tyrosinase after application on normal human melanocytes, percentage inhibition (10^−4M): 23.2% | Inhibition of human tyrosinase after application on normal human melanocytes, percentage inhibition (10^−5M): 12.1%

COc1cc(OC)c2c(c1)O/C(=C\c1ccco1)C2=O [Example 5m, (Z)-4,6-Dimethoxy-2-[(furan)methylene]benzofuran-3(2H)-one]
Inhibition of human tyrosinase after application on normal human melanocytes, percentage inhibition (10^−4M): 19.5% | Inhibition of human tyrosinase after application on normal human melanocytes, percentage inhibition (10^−5M): 6.4%

O=C1/C(=C/c2ccc(S(=O)(=O)O)cc2)Oc2cc(O)cc(O)c21 [Example 7e]
Inhibition of human tyrosinase after application on normal human melanocytes, percentage inhibition (10^−4M): 0% | Inhibition of human tyrosinase after application on normal human melanocytes, percentage inhibition (10^−5M): 4.83%

Cc1cc(/C=C2\Oc3cc(O)cc(O)c3C2=O)oc1C [Example 7o, (Z)-4,6-Dihydroxy-2-[(4,5-dimethylfuran)methylene]benzofuran-3(2H)-one]
Inhibition of human tyrosinase after application on normal human melanocytes, percentage inhibition (10^−4M): 13.6% | Inhibition of human tyrosinase after application on normal human melanocytes, percentage inhibition (10^−5M): 4.5%

COc1cc(OC)c2c(c1)O/C(=C\c1ccc(S(=O)(=O)O)cc1S(=O)(=O)O)C2=O [Example 5f, (Z)-4,6-dimethoxy-2-(2′,4′-disulfonatebenzylidene)benzofuran-3(2H)-one]
Inhibition of human tyrosinase after application on normal human melanocytes, percentage inhibition (10^−4M): 9.36% | Inhibition of human tyrosinase after application on normal human melanocytes, percentage inhibition (10^−5M): 2.88%

Cc1cc(C)c(/C=C2\Oc3cc(O)cc(O)c3C2=O)[nH]1 [Example 7t, (Z)-4,6-Dihydroxy-2-[(3,5-dimethylpyrrole)methylene]benzofuran-3(2H)-one]
Inhibition of human tyrosinase after application on normal human melanocytes, percentage inhibition (10^−4M): 26.4% | Inhibition of human tyrosinase after application on normal human melanocytes, percentage inhibition (10^−5M): 0%

O=C1/C(=C/c2cccs2)Oc2cc(O)cc(O)c21 [Example 7p, (Z)-4,6-Dihydroxy-2-[(thiophene)methylene]benzofuran-3(2H)-one]
Inhibition of human tyrosinase after application on normal human melanocytes, percentage inhibition (10^−4M): 35.2% | Inhibition of human tyrosinase after application on normal human melanocytes, percentage inhibition (10^−5M): 15.3%

CC(C)c1ccc(/C=C2\Oc3cc(O)cc(O)c3C2=O)cc1 [Example 7i]
Inhibition of human tyrosinase after application on normal human melanocytes, percentage inhibition (10^−4M): 0% | Inhibition of human tyrosinase after application on normal human melanocytes, percentage inhibition (10^−5M): 31.86%

O=C1/C(=C/c2ccc[nH]2)Oc2cc(O)cc(O)c21 [Example 7s, (Z)-4,6-Dihydroxy-2-[(pyrrole)methylene]benzofuran-3(2H)-one]
Inhibition of human tyrosinase after application on normal human melanocytes, percentage inhibition (10^−4M): 22.8% | Inhibition of human tyrosinase after application on normal human melanocytes, percentage inhibition (10^−5M): 9.1%

CCc1ccccc1/C=C1\Oc2cc(O)ccc2C1=O [Example 3b, (Z)-2-(2′-Ethyl)Benzylidene-6-Hydroxybenzofuran-3(2H)-one]
Inhibition of human tyrosinase after application on normal human melanocytes, percentage inhibition (10^−4M): 0% | Inhibition of human tyrosinase after application on normal human melanocytes, percentage inhibition (10^−5M): 0%

Cc1ccc(/C=C2\Oc3cc(O)cc(O)c3C2=O)s1 [Example 7q, (Z)-4,6-Dihydroxy-2-[(5-methylthiophene)methylene]benzofuran-3(2H)-one]
Inhibition of human tyrosinase after application on normal human melanocytes, percentage inhibition (10^−4M): 16.4% | Inhibition of human tyrosinase after application on normal human melanocytes, percentage inhibition (10^−5M): 7%

CCc1ccc(/C=C2\Oc3cc(OC)cc(OC)c3C2=O)s1 [Example 5r, (Z)-4,6-Dimethoxy-2-[(5-ethylthiophene)methylene]benzofuran-3(2H)-one]
Inhibition of human tyrosinase after application on normal human melanocytes, percentage inhibition (10^−4M): 11.9% | Inhibition of human tyrosinase after application on normal human melanocytes, percentage inhibition (10^−5M): 2.1%

COc1cc(OC)c2c(c1)O/C(=C\c1ccc(C)s1)C2=O [Example 5q, (Z)-4,6-Dimethoxy-2-[(5-methylthiophene)methylene]benzofuran-3(2H)-one]
Inhibition of human tyrosinase after application on normal human melanocytes, percentage inhibition (10^−4M): 4.8% | Inhibition of human tyrosinase after application on normal human melanocytes, percentage inhibition (10^−5M): 0%

CCc1ccc(/C=C2\Oc3cc(O)cc(O)c3C2=O)s1 [Example 7r, (Z)-4,6-Dihydroxy-2-[(5-ethylthiophene)methylene]benzofuran-3(2H)-one]
Inhibition of human tyrosinase after application on normal human melanocytes, percentage inhibition (10^−4M): 13.8% | Inhibition of human tyrosinase after application on normal human melanocytes, percentage inhibition (10^−5M): 0%

CC(C)(C)c1ccc(/C=C2\Oc3cc(O)cc(O)c3C2=O)cc1 [Example 7k]
Inhibition of human tyrosinase after application on normal human melanocytes, percentage inhibition (10^−4M): 0% | Inhibition of human tyrosinase after application on normal human melanocytes, percentage inhibition (10^−5M): 25.1%

CCc1ccc(/C=C2\Oc3cc(O)ccc3C2=O)cc1 [Example 3a, (Z)-2-(4′-Ethyl)Benzylidene-6-Hydroxybenzofuran-3(2H)-one]
Inhibition of human tyrosinase after application on normal human melanocytes, percentage inhibition (10^−4M): 0% | Inhibition of human tyrosinase after application on normal human melanocytes, percentage inhibition (10^−5M): 23.9%

COc1cc(OC)c2c(c1)O/C(=C\c1cccs1)C2=O [Example 5p, (Z)-4,6-Dimethoxy-2-[(thiophene)methylene]benzofuran-3(2H)-one]
Inhibition of human tyrosinase after application on normal human melanocytes, percentage inhibition (10^−4M): 31.3% | Inhibition of human tyrosinase after application on normal human melanocytes, percentage inhibition (10^−5M): 6.4%

COc1cc(OC)c2c(c1)O/C(=C\c1ccc(S(=O)(=O)O)cc1)C2=O [Example 5e, (Z)-4,6-dimethoxy-2-(4′-sulfonatebenzylidene)benzofuran-3(2H)-one]
Inhibition of human tyrosinase after application on normal human melanocytes, percentage inhibition (10^−4M): 0% | Inhibition of human tyrosinase after application on normal human melanocytes, percentage inhibition (10^−5M): 1.44%

CCc1ccc(/C=C2\Oc3cc(OC)cc(OC)c3C2=O)o1 [Example 5n, (Z)-4,6-Dimethoxy-2-[(5-ethylfuran)methylene]benzofuran-3(2H)-one]
Inhibition of human tyrosinase after application on normal human melanocytes, percentage inhibition (10^−4M): 7.8% | Inhibition of human tyrosinase after application on normal human melanocytes, percentage inhibition (10^−5M): 0%

COc1cc(OC)c2c(c1)O/C(=C\c1[nH]c(C)cc1C)C2=O [Example 5t, (Z)-4,6-Dimethoxy-2-[(3,5-dimethylpyrrole)methylene]benzofuran-3(2H)-one]
Inhibition of human tyrosinase after application on normal human melanocytes, percentage inhibition (10^−4M): 5.1% | Inhibition of human tyrosinase after application on normal human melanocytes, percentage inhibition (10^−5M): 0%

O=c1cc(-c2ccc(O)cc2)oc2cc(O)cc(O)c12 [Apigenin, reference compound]
Inhibition of human tyrosinase on normal human melanocytes, result in words (model of Example 15): do not inhibit tyrosinase

COc1cc(OC)c2c(c1)O/C(=C\c1ccc[nH]1)C2=O [Example 5s, (Z)-4,6-Dimethoxy-2-[(pyrrole)methylene]benzofuran-3(2H)-one]
Inhibition of human tyrosinase after application on normal human melanocytes, percentage inhibition (10^−4M): 13.7% | Inhibition of human tyrosinase after application on normal human melanocytes, percentage inhibition (10^−5M): 0%

CCc1ccc(/C=C2\Oc3cc(O)cc(O)c3C2=O)o1 [Example 7n, (Z)-4,6-Dihydroxy-2-[(5-ethylfuran)methylene]benzofuran-3(2H)-one]
Inhibition of human tyrosinase after application on normal human melanocytes, percentage inhibition (10^−4M): 28.5% | Inhibition of human tyrosinase after application on normal human melanocytes, percentage inhibition (10^−5M): 13.4%
